Publication PMC9705435, “Thiocarbazate building blocks enable the construction of azapeptides for rapid development of therapeutic candidates” (Nature Communications, 2022)

Test system: rats
Test: Acute blood pressure monitoring (mean arterial pressure) in anesthetized rats
Type: in vivo, rat
Conditions: Icatibant 10 µg/kg IV-bolus 15 min before azaF^8-BK
Experimental: Each grey data point represents one animal. Mean values (with SEM where indicated) for animals given experimental agent were compared with vehicle.
Next, in vivo bioactivity of aza-BK analogues was evaluated in an acute blood pressure monitoring study in rats[61] based on the known blood pressure lowering effect of BK. Briefly, rats were anesthetized and changes in mean arterial blood pressure (MAP) were recorded during intravenous (IV) injection of test agents (6.4 µg/kg) (Fig. 4b).
Statistical analysis. […] Data are presented as means ± SEM unless otherwise stated. Differences between treatment groups were determined by 2-tailed Unpaired t-test; p value less than 0.05 was considered statistically significant. […] P values less than 0.05 were considered statistically significant.
5.2 Surgical procedure and physiological blood pressure measurement
Adult male Sprague Dawley rats (n = 22, weight: 300 – 350 gm; age: 8 – 10 weeks) from Charles River Labs were used under the approval of Institutional Animal Care and Use Committee at The Feinstein Institutes for Medical Research
Rats were anesthetized using isoflurane at 1-3 %. Body temperature was maintained at 37°C using a heating pad. […] All physiological signals were registered using PowerLab, BioAmp and BridgeAmp (ADInstruments, CO, USA), which were recorded on a computer using LabChart v8 software (ADInstruments, CO, USA). […]

For icatibant, the “effect of pretreatment on azaF^8-BK (68)-induced lowering of blood pressure” value was “partial inhibition”.
